The values that follow are results of earlier work, collected in publication PMC4422128, “Discovery of sea urchin NGFFFamide receptor unites a bilaterian neuropeptide family” (Open Biology, 2015).

“Also recorded” adds a separate entry of the source. Positions of bridges follow the written chain, without caps; N, C: chain ends. No end group written: not given here.

The test system of one data set is crab hearts. On the set-up: method as in PMID 16593803.
For data set [1], the system named is NPSR-type protein in Drosophila. An excerpt: Furthermore, the ligand that activ ...
In another data set the test system is arthropods. Conditions: insects (b4). From the text: Furthermore, the ligand that activ ... || Our discovery that the NPS/CCAP-type receptor in the sea urchin S. purpuratus is activated by the NG peptide NGFFFamide provides a basis for investigation of the physiological roles of NG peptides in deuterostomian invertebrates. This will provide new insights into the evolution of the physiological and behavioural functions of NPS/NG peptide/CCAP-type neuropeptides in the animal kingdom. Based upon what is currently known, a common theme seems to be a role in control of behaviours that are associated with a heightened state of arousal. Thus, NPS causes anxiolysis and arousal in mammals, ...

A further data set concerns rodents. Conditions: rodents (b3); mammals. An excerpt: This will provide new insights into the evolution of the physiological and behavioural functions of NPS/NG peptide/CCAP-type neuropeptides in the animal kingdom. Based upon what is currently known, a common theme seems to be a role in control of behaviours that are associated with a heightened state of arousal. Thus, NPS causes anxiolysis and arousal in mammals, ...

The next data set concerns VRR1/GPR154 (NPSR). Further details: method as in PMID 15312648. As to conditions: purified from brain extracts.

For “PFCNAFTGC-NH2 (disulfide 3-9 (inferred)) [CCAP, crustacean cardioactive peptide]”, the “effect on crab hearts” value in the data set on crab hearts is recorded as “excitatory effect on crab hearts”. For the same substance, in data set [1], the “activation of NPSR-type protein in Drosophila” value is “activates the NPSR-type protein in Drosophila”. The control/activation of ecdysis result with arthropods is given as “activates the ecdysis motor programme; also recorded: controls ecdysis behaviour in insects”.

As to “SFRNGVGTGMKKTSFQRAKS [NPS, neuropeptide-S]”, in the data set with rodents, the “physiological action of NPS: anxiety” value is reported as “anxiolytic-like action; also recorded: anxiolysis” and the “physiological action of NPS: arousal” value is “causing arousal”. The “ligand activity at VRR1/GPR154, NPS” value in the data set with VRR1/GPR154 (NPSR) is given as “endogenous ligand”.
